This assay has as its target T1, 5HTR2B (Homo sapiens, UniProt P41595).
T1 construct: host or cells: human Maverick/293 cells
Put plainly: 5HTR2B antagonist activity, calcium mobilization assay in human Maverick/293 cells (serotonin as agonist). The format is cell-based. The following applies: intracellular calcium, emission 525 nm, read-out: Ca assay IC50. The essentials:
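Serum-starved (2 h) human Maverick/293 cells loaded with calcium dye for 50 min at 37 °C, then antagonist preincubated 15-30 min before serotonin challenge. Calcium fluorescence (ex 485/em 525 nm) recorded for 80 s; peak-based % inhibition fitted sigmoidally for IC50.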

The values that follow come from patent publication US10654837B2, “Sulphamoylaryl derivatives and use thereof as medicaments for the treatment of liver fibrosis” (Janssen Pharmaceutica NV, priority 2017, dated 2020).

By IC50 is commonly meant the midpoint of a concentration-inhibition curve.

T1 sequence (P41595 whole entry): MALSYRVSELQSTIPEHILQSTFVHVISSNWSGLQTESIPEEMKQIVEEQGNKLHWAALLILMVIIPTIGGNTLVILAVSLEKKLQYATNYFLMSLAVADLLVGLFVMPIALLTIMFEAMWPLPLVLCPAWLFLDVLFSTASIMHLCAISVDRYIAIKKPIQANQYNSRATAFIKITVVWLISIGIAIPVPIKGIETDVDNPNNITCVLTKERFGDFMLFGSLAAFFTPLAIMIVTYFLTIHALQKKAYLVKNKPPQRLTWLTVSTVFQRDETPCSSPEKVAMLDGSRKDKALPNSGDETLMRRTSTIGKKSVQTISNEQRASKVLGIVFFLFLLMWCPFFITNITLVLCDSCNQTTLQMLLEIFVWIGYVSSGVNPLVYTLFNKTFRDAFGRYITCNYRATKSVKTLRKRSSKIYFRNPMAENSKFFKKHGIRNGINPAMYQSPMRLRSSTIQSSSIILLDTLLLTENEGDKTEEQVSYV

Regarding `COc1ccc(S(=O)(=O)N[C@H]2CCOC2)cc1C(=O)Nc1c(F)cccc1OC` [Compound 130, (S)—N-(2-Fluoro-6-methoxyphenyl)-2-methoxy-5-(N-(tetrahydrofuran-3-yl)sulfamoyl)benzamide], the 50% inhibitory concentration (IC50) came to 2.1 nM.
Turning to `COc1ccc(S(=O)(=O)NCC(O)C(F)(F)F)cc1C(=O)Nc1ccc(F)c(C)n1` (single isomer, unassigned) [Compound 23a, (R*)—N-(5-fluoro-6-methylpyridin-2-yl)-2-methoxy-5-(N-(3,3,3-trifluoro-2-hydroxypropyl)sulfamoyl)benzamide], the IC50 stood at 4.7 nM.
The same measure for `COc1ccc(S(=O)(=O)N[C@H]2CCOC2)cc1C(=O)Nc1ncc(F)cc1F` [Compound 118, (S)—N-(3,5-Difluoropyridin-2-yl)-2-methoxy-5-(N-(tetrahydrofuran-3-yl)sulfamoyl)benzamide]: 6.7 nM.
The same measure for `COc1ccc(S(=O)(=O)N[C@H]2CCOC2)cc1C(=O)Nc1ccc(F)c(Cl)c1F` [Compound 77, (S)—N-(3-Chloro-2,4-difluorophenyl)-2-methoxy-5-(N-(tetrahydrofuran-3-yl)sulfamoyl)benzamide]: 5.3 nM; for `COc1ccc(S(=O)(=O)N[C@H]2CCOC2)cc1C(=O)Nc1c(F)cc(F)cc1F` [Compound 76, (S)-2-Methoxy-5-(N-(tetrahydrofuran-3-yl)sulfamoyl)-N-(2,4,6-trifluorophenyl) benzamide]: 3.1 nM; for `[2H]C([2H])([2H])Oc1ccc(S(=O)(=O)N[C@H]2CCOC2)cc1C(=O)Nc1ccc(F)c(C)n1` [Compound 194, (S)—N-(5-fluoro-6-methylpyridin-2-yl)-2-(methoxy-d3)-5-(N-(tetrahydrofuran-3-yl)sulfamoyl)benzamide]: 1.1 nM.
To `COc1ccc(S(=O)(=O)NC2CC2)cc1C(=O)Nc1ccc(F)c(C)n1` [Compound 21, 5-(N-Cyclopropylsulfamoyl)-N-(5-fluoro-6-methylpyridin-2-yl)-2-methoxy benzamide] belongs 1.6 nM.
For `COc1ccc(S(=O)(=O)NC2CCC2)cc1C(=O)Nc1ccc(F)cc1` [Compound 47, 5-(N-Cyclobutylsulfamoyl)-N-(4-fluorophenyl)-2-methoxybenzamide], the 50% inhibitory concentration (IC50) was 0.5 nM.
`COc1ccc(S(=O)(=O)N[C@H]2CCCOC2)cc1C(=O)Nc1ccc(F)c(C(F)F)c1` [Compound 37, (S)—N-(3-(Difluoromethyl)-4-fluorophenyl)-2-methoxy-5-(N-(tetrahydro-2H-pyran-3-yl)sulfamoyl)benzamide]: the half-maximal inhibitory concentration (IC50) came out at 0.8 nM.
The same measure for `COc1ccc(S(=O)(=O)N[C@H]2CCOC2)cc1C(=O)Nc1ccc(F)c(C(F)(F)F)c1` [Compound 160, (S)—N-(4-Fluoro-3-(trifluoromethyl)phenyl)-2-methoxy-5-(N-(tetrahydrofuran-3-yl)sulfamoyl)benzamide]: 4.6 nM.
To `COc1ccc(S(=O)(=O)N[C@H]2CCOC2)cc1C(=O)Nc1ccc(F)c(F)c1` [Compound 111, (S)—N-(3,4-Difluorophenyl)-2-methoxy-5-(N-(tetrahydrofuran-3-yl)sulfamoyl) benzamide] belongs 1.3 nM.
To `COc1ccc(S(=O)(=O)N[C@H]2CCNC2)cc1C(=O)Nc1ccccc1Cl` [Compound 179, (S)—N-(2-Chlorophenyl)-2-methoxy-5-(N-(pyrrolidin-3-yl)sulfamoyl)benzamide] belongs 0.1 nM.
Turning to `COc1ccc(S(=O)(=O)NC2CCCOC2)cc1C(=O)Nc1ccc(F)c(C)n1` (single isomer, unassigned) [Compound 16a, (S*)—N-(5-Fluoro-6-methylpyridin-2-yl)-2-methoxy-5-(N-(tetrahydro-2H-pyran-3-yl)sulfamoyl)benzamide], the IC50 is 1.1 nM.
To `COCC(C)NS(=O)(=O)c1ccc(OC)c(C(=O)Nc2ccc(F)c(C(F)F)c2)c1` (single isomer, unassigned) [Compound 32b, (S*)—N-(3-(Difluoromethyl)-4-fluorophenyl)-2-methoxy-5-(N-(1-methoxypropan-2-yl)sulfamoyl)benzamide] belongs 8.5 nM.
Take `COc1ccc(S(=O)(=O)N[C@H]2CCOC2)cc1C(=O)Nc1ccc(F)cc1Cl` [Compound 66, (S)—N-(2-Chloro-4-fluorophenyl)-2-methoxy-5-(N-(tetrahydrofuran-3-yl)sulfamoyl)benzamide]: the IC50 amounted to 0.2 nM.
To `CCOc1ccccc1NC(=O)c1cc(S(=O)(=O)N[C@H]2CCOC2)ccc1OC` [Compound 136, (S)—N-(2-ethoxyphenyl)-2-methoxy-5-(N-(tetrahydrofuran-3-yl)sulfamoyl) benzamide] belongs 0.4 nM; to `COc1ccc(S(=O)(=O)N[C@H]2CCOC2)cc1C(=O)Nc1ccccc1C1CC1` [Compound 151, (S)—N-(2-Cyclopropylphenyl)-2-methoxy-5-(N-(tetrahydrofuran-3-yl)sulfamoyl) benzamide], 39 nM.
The same measure for `COc1ccc(S(=O)(=O)N[C@H]2C[C@H](O)C2)cc1C(=O)Nc1ccccc1Cl` [Compound 154]: 0.6 nM.
The same measure for `COc1ccc(S(=O)(=O)N[C@H]2CCOC2)cc1C(=O)Nc1cc(Cl)ccc1Cl` [Compound 71, (S)—N-(2,5-Dichlorophenyl)-2-methoxy-5-(N-(tetrahydrofuran-3-yl)sulfamoyl)benzamide]: 1.6 nM; for `COc1ccc(S(=O)(=O)NC2(C)COC2)cc1C(=O)Nc1ccc(F)c(C)c1` [Compound 9, N-(4-Fluoro-3-methylphenyl)-2-methoxy-5-(N-(3-methyloxetan-3-yl)sulfamoyl) benzamide]: 2.2 nM.
On to `COc1ccc(S(=O)(=O)N[C@H]2CCOC2)cc1C(=O)Nc1ccc(F)c(C#N)c1` [Compound 95, (S)—N-(3-Cyano-4-fluorophenyl)-2-methoxy-5-(N-(tetrahydrofuran-3-yl)sulfamoyl)benzamide], for which the concentration for half-maximal inhibition (IC50) came to 648 nM.
Turning to `COc1ccc(S(=O)(=O)NC2COC[C@@H]2O)cc1C(=O)Nc1ccccc1Cl` (stereo in doubt) [Compound 56a, N-(2-Chlorophenyl)-5-(N-((cis)-4-hydroxytetrahydrofuran-3-yl)sulfamoyl)-2-methoxybenzamide], the IC50 was 0.1 nM.
Consider `COc1ccc(S(=O)(=O)N[C@H]2CCOC2)cc1C(=O)Nc1ccc(OC(F)F)cc1` [Compound 106, (S)—N-(4-(Difluoromethoxy)phenyl)-2-methoxy-5-(N-(tetrahydrofuran-3-yl)sulfamoyl)benzamide], for which the concentration for half-maximal inhibition (IC50) was determined as 596 nM.
The same measure for `COc1ccc(S(=O)(=O)N[C@H]2CC[C@@H](O)CC2)cc1C(=O)Nc1ccc(F)cc1` [Compound 53, N-(4-Fluorophenyl)-5-(N-((cis)-4-hydroxycyclohexyl)sulfamoyl)-2-methoxybenzamide]: 0.3 nM; for `CCOc1ccc(S(=O)(=O)N[C@H]2CCOC2)cc1C(=O)Nc1ccc(F)c(C)n1` [Compound 198, (S)-2-ethoxy-N-(5-fluoro-6-methylpyridin-2-yl)-5-(N-(tetrahydrofuran-3-yl)sulfamoyl)benzamide]: 0.7 nM.
To `COc1ccc(S(=O)(=O)N[C@H]2CCOC2)cc1C(=O)Nc1cc(F)cc(C#N)c1` [Compound 87, (S)—N-(3-Cyano-5-fluorophenyl)-2-methoxy-5-(N-(tetrahydrofuran-3-yl)sulfamoyl)benzamide] belongs 29 nM; to `COc1ccc(S(=O)(=O)NC2CCCC[C@@H]2O)cc1C(=O)Nc1ccc(F)c(C)n1` (stereo in doubt) [Compound 28a, N-(5-Fluoro-6-methylpyridin-2-yl)-5-(N-((trans)-2-hydroxycyclohexyl)sulfamoyl)-2-methoxybenzamide], 19 nM.
To `COc1ccc(S(N)(=O)=O)cc1C(=O)Nc1ccc(F)c(C)n1` [Compound 22] belongs 610 nM; to `COc1ccc(S(=O)(=O)N[C@H]2C[C@@H](O)C2)cc1C(=O)Nc1ccc(F)c(C)c1F` [Compound 173, N-(2,4-Difluoro-3-methylphenyl)-5-(N-((cis)-3-hydroxycyclobutyl)sulfamoyl)-2-methoxybenzamide], 0.8 nM; to `COc1ccc(S(=O)(=O)N[C@H]2C[C@H](O)C2)cc1C(=O)Nc1ccc(F)cc1F` [Compound 145a, N-(2,4-difluorophenyl)-5-(N-((trans)-3-hydroxycyclobutyl)sulfamoyl)-2-methoxybenzamide], 2.5 nM.
`COc1ccc(S(=O)(=O)N[C@H](C)CC#N)cc1C(=O)Nc1ccc(F)c(C)c1` (single isomer, unassigned) [Compound 11b, (R*)-5-(N-(1-Cyanopropan-2-yl)sulfamoyl)-N-(4-fluoro-3-methylphenyl-2-methoxybenzamide]: the concentration for half-maximal inhibition (IC50) was determined as 5.1 nM.
To `COc1ccc(S(=O)(=O)N[C@H]2CCOC2)cc1C(=O)Nc1ccc(F)c(C)n1` [Compound 2] belongs 0.6 nM; to `COc1ccc(S(=O)(=O)N[C@H]2C[C@H](O)C2)cc1C(=O)Nc1ccc(F)c(C(F)F)c1` [Compound 142a, N-(3-(difluoromethyl)-4-fluorophenyl)-5-(N-((trans)-3-hydroxycyclobutyl)sulfamoyl)-2-methoxybenzamide], 2.2 nM.
As to `COc1ccc(S(=O)(=O)N[C@H]2CCOC2)cc1C(=O)Nc1nc(C)c(C)s1` [Compound 83, (S)—N-(4,5-dimethylthiazol-2-yl)-2-methoxy-5-(N-(tetrahydrofuran-3-yl)sulfamoyl)benzamide], the half-maximal inhibitory concentration (IC50) is 126 nM.
To `COc1ccc(S(=O)(=O)N[C@H]2C[C@H](O)C2)cc1C(=O)Nc1ccc(F)c(C(F)F)n1` [Compound 174a, N-(6-(Difluoromethyl)-5-fluoropyridin-2-yl)-5-(N-((trans)-3-hydroxycyclobutyl)sulfamoyl)-2-methoxybenzamide] belongs 3.9 nM; to `COc1ccc(S(=O)(=O)N[C@H]2CC[C@@H](O)CC2)cc1C(=O)Nc1ccc(F)c(C)n1` [Compound 27, N-(5-Fluoro-6-methylpyridin-2-yl)-5-(N-((cis)-4-hydroxycyclohexyl)sulfamoyl)-2-methoxybenzamide], 1.1 nM.
